Consider ten compounds from US7932277B2, “Peptide inhibitors of hepatitis C virus replication” (InterMune, Inc., priority 2007, dated 2011).

Like-named read-outs stand apart in the source and are kept apart here.

Experiment [1] deals with T1, NS3/NS4A-2 (full-length HCV NS3 protease complexed with NS4A-2) (Hepatitis C virus genotype 1a, UniProt P27958).
T1 construct: Recombinant E. coli or Baculovirus full-length NS3; host or cells: E. coli or baculovirus (insect cells)
Nature of the experiment: NS3 inhibition assay (NS3-NS4 protease assay). It counts as biochemical. How it is done: Recombinant E. coli or Baculovirus full-length NS3 was diluted to 3.33 μM with assay buffer and transferred material to an eppendorf tube and place in water bath in 4° C. refrigerator. The appropriate amount of NS4A-2 to 8.3 mM in assay buffer was added to equal the volume of NS3 in step 2.1.1 (conversion factor −3.8 mg/272 μL assay buffer). The material was transferred to an eppendorf tube and place in water bath in 4° C. refrigerator.
After equilibration to 4° C., equal volumes of NS3 and NS4A-2 solutions were combined in an eppendorf tube, mix gently with a manual pipettor, and incubate mixture for 15 minutes in the 4° C. water bath. Final concentrations in the mixture are 1.67 μM NS3, 4.15 mM NS4A-2 (2485-fold molar excess NS4A-2).
After 15 minutes at 4° C., the NS3/NS4A-2 eppendorf tube was removed and place it in a room temperature water bath for 10 minutes. NS3/NS4A-2 was aliquoted at appropriate volumes and store at −80° C. (E. coli NS3 run at 2 nM in assay, aliquot at 25 μL. BV NS3 run at 3 nM in assay, aliquot at 30 μL).
Sample compounds were dissolved to 10 mM in DMSO then diluted to 2.5 mM (1:4) in DMSO. Typically, compounds were added to an assay plate at 2.5 mM concentration, yielding upon dilution a starting concentration of 50 microM in the assay inhibition curve. Compounds were serial diluted in assay buffer to provide test solutions at lower concentrations.
The E. coli. NS3/NS4A-2 was diluted to 4 nM NS3 (1:417.5 of 1.67 μM stock−18 μL1.67 μM stock+7497 μL assay buffer). The BV NS3/NS4A-2 was diluted to 6 nM NS3 (1:278.3 of 1.67 μM stock−24 μL1.67 μM stock+6655 μL assay buffer). Using the manual multichannel pipettor, careful not to introduce bubbles into the plate, add 50 μL assay buffer to wells A01-H01 of a black Costar 96-well polypropylene storage plate.
Using the manual multichannel pipettor, careful not to introduce bubbles into the plate, add 50 μL of diluted NS3/NS4A-2 from step 2.2.6 to wells A02-H12 of plate in step 2.2.7. Using the manual multichannel pipettor, careful not to introduce bubbles into the plate, transfer 25 μL of the wells in drug dilution plate in step 2.2.5 to corresponding wells in assay plate in step 2.2.8. Change tips on multichannel pipettor for each row of compounds transferred. Using the manual multichannel pipettor, careful not to introduce bubbles into the plate, mix the wells from the assay plate in step 2.2.9 by aspirating and dispensing 35 μL of the 75 μL in each well five times. Change tips on multichannel pipettor for each row of wells mixed. Cover plate with a polystyrene plate lid and pre-incubate the plate from step 2.2.10 containing NS3 protease and sample compounds 10 minutes at room temperature. While plate from step 2.2.11 is pre-incubating, dilute RETS1 substrate in a 15 mL polypropylene centrifuge tube. Dilute RETS1 substrate to 8 μM (1:80.75 of 646 μM stock−65 μL 646 μM stock+5184 μL assay buffer).
After the plate in step is done pre-incubating, and using the manual multichannel, add 25 μL of substrate to all wells on the plate. Quickly mix the plate as in step 2.2.10, mixing 65 μL of the 100 μL in the wells.
Read the plate in kinetic mode on the Molecular Devices SpectraMax Gemini XS plate reader. Reader settings: Read time: 30 minutes, Interval: 36 seconds, Reads: 51, Excitation λ: 335 nm, Emission λ: 495 nm, cutoff: 475 nm, Automix: off, Calibrate: once, PMT: high, Reads/well: 6, Vmax pts: 21 or 28/51 depending on length of linearity of reaction
IC50s are determined using a four parameter curve fit equation, and converted to Ki's using the following Km's: • Full-length E. coli NS3−2.03 μM • Full-length BV NS3−1.74 μM • where Ki=IC50/(1+[S]/Km)) • Quantitation by ELISA of the Selectable Marker Protein, Neomycin Phosphotransferase II (NPTII) in the HCV Sub-Genomic Replicon, GS4.3

Experiment [2] relates to HCV sub-genomic replicon (1377/NS3-3') in HuH-7 hepatoma cells (GS4.3). Nature of the experiment: Quantitation by ELISA of NPTII in the HCV sub-genomic replicon, GS4.3. The class given is cell-based, hepatitis C virus (HCV). The conditions noted are these: read-out: Replicon EC50. How it is done: The HCV sub-genomic replicon (1377/NS3-3′, accession No. AJ242652), stably maintained in HuH-7 hepatoma cells, was created by Lohmann et al. Science 285: 110-113 (1999). The replicon-containing cell culture, designated GS4.3, was obtained from Dr. Christoph Seeger of the Institute for Cancer Research, Fox Chase Cancer Center, Philadelphia, Pa.
GS4.3 cells were maintained at 37° C., 5% CO2, in DMEM (Gibco 11965-092) supplemented with L-glutamine 200 mM (100×) (Gibco25030-081), non-essential amino acids (NEAA) (Biowhittaker 13-114E), heat-inactivated (HI) Fetal Bovine Serum (FBS) (Hyclone SH3007.03) and 750 μg/mL geneticin (G418)(Gibco 10131-035). Cells were sub-divided 1:3 or 4 every 2-3 days.
24 h prior to the assay, GS4.3 cells were collected, counted, and plated in 96-well plates (Costar 3585) at 7500 cells/well in 100 μL standard maintenance medium (above) and incubated in the conditions above. To initiate the assay, culture medium was removed, cells were washed once with PBS (Gibco 10010-023) and 90 μl Assay Medium (DMEM, L-glutamine, NEAA, 10% HI FBS, no G418) was added. Inhibitors were made as a 10× stock in Assay Medium, (3-fold dilutions from 10 μM to 56 pM final concentration, final DMSO concentration 1%), 10 μL were added to duplicate wells, plates were rocked to mix, and incubated as above for 72 h.
An NPTII Elisa kit was obtained from AGDIA, Inc. (Compound direct ELISA test system for Neomycin Phosphotransferase II, PSP 73000/4800). Manufacturer's instructions were followed, with some modifications. 10×PEB-1 lysis buffer was made up to include 500 μM PMSF (Sigma P7626, 50 mM stock in isopropanol). After 72 h incubation, cells were washed once with PBS and 150 μL PEB-1 with PMSF was added per well. Plates were agitated vigorously for 15 minutes, room temperature, then frozen at −70° C. Plates were thawed, lysates were mixed thoroughly, and 100 μl were applied to an NPTII Elisa plate. A standard curve was made. Lysate from DMSO-treated control cells was pooled, serially diluted with PEB-1 with PMSF, and applied to duplicate wells of the ELISA plate, in a range of initial lysate amount of 150 μL-2.5 μL. In addition, 100 μL buffer alone was applied in duplicate as a blank. Plates were sealed and gently agitated at room temperature for 2 h. Following capture incubation, the plates were washed 5×300 μL with PBS-T (0.5% Tween-20, PBS-T was supplied in the ELISA kit). For detection, a 1× dilution of enzyme conjugate diluent MRS-2 (5×) was made in PBS-T, into which 1:100 dilutions of enzyme conjugates A and B were added, as per instructions. Plates were resealed, and incubated with agitation, covered, room temperature, for 2 h. The washing was then repeated and 100 μL of room temperature TMB substrate was added. After approximately 30 minutes incubation (room temperature, agitation, covered), the reaction was stopped with 50 μL 3M sulfuric acid. Plates were read at 450 nm on a Molecular Devices Versamax plate reader.
Inhibitor effect was expressed as a percentage of DMSO-treated control signal, and inhibition curves were calculated using a 4-parameter equation: y=A+((B−A)/(1+((C/x)^D))), where C is half-maximal activity or EC50.
A general note: In an ELISA, binding on a coated surface is turned into a signal by an enzyme label.

Setting [3] is: recombinant full-length NS3/NS4A-2, RETS1 substrate, kinetic fluorescence read, read-out: NS3-NS4 IC50.
[4] abbreviates: Hepatitis C virus, Huh-7, GS4.3 cells, 72 h incubation, NPTII ELISA.

T1 sequence (P27958 1027-1657, one chain of several): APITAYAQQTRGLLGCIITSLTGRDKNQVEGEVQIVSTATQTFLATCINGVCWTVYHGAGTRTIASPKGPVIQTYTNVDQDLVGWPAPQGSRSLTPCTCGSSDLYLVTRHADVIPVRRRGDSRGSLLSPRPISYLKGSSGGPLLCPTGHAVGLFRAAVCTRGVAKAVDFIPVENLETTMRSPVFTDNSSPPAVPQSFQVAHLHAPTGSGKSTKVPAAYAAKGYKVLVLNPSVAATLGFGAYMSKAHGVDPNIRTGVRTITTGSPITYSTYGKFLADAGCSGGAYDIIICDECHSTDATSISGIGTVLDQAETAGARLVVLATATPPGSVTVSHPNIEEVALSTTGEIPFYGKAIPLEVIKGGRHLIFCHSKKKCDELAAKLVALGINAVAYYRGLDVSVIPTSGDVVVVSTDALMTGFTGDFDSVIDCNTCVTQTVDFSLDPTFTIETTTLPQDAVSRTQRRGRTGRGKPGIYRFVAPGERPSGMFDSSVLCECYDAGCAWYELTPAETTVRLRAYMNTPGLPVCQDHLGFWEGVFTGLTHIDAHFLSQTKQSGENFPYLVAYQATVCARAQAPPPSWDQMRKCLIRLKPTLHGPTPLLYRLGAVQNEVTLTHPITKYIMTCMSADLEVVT

`CC[C@@H]1CC1(NC(=O)[C@@H]1C[C@@H](OC(=O)N2Cc3cccc(Cl)c3C2)CN1C(=O)[C@@H](Nc1cccnc1)C(C)(C)C)C(=O)NS(=O)(=O)C1CC1` (some centres unmarked) [Compound 74]: the IC50 in experiment [1] (setting [3]) is under 0.1 µM. Moreover, the EC50 in experiment [2] (setting [4]) is under 0.1 µM.

As for `C=C[C@@H]1C[C@]1(NC(=O)[C@@H]1C[C@@H](OC(=O)N2Cc3cccc(F)c3C2)CN1C(=O)[C@@H](Nc1ccc(C(C)(C)C)cc1)C(C)C)C(=O)NS(=O)(=O)C1CC1` [Compound 38, [(3R,5S)-1-((S)-2-(4-tert-butylphenylamino)-3-methylbutanoyl)-5-((1R,2S)-1-(cyclopropylsulfonylcarbamoyl)-2-vinylcyclopropylcarbamoyl)pyrrolidin-3-yl]4-fluoroisoindoline-2-carboxylate], the IC50 in experiment [1] (setting [3]) is under 0.1 µM. Further, the EC50 in experiment [2] (setting [4]) fell in the range of 0.1 to 1 µM.

Take `C=C[C@@H]1C[C@]1(NC(=O)[C@@H]1C[C@@H](OC(=O)N2Cc3cccc(F)c3C2)CN1C(=O)[C@@H](Nc1cccc(C(F)(F)F)c1)C(C)C)C(=O)NS(=O)(=O)C1CC1` [Compound 42, [(3R,5S)-5-((1R,2S)-1-(cyclopropylsulfonylcarbamoyl)-2-vinylcyclopropylcarbamoyl)-1-((S)-3-methyl-2-(3-(trifluoromethyl)phenylamino)butanoyl)pyrrolidin-3-yl]4-fluoroisoindoline-2-carboxylate]: the IC50 in experiment [1] (setting [3]) was under 0.1 µM. The EC50 in experiment [2] (setting [4]) is under 0.1 µM.

For `C=C[C@@H]1C[C@]1(NC(=O)[C@@H]1C[C@@H](OC(=O)N2Cc3cccc(Cl)c3C2)CN1C(=O)[C@@H](Nc1nc(-c2ccc(F)nc2)cs1)C1CCCCC1)C(=O)NS(=O)(=O)C1CC1` [Compound 61, [(3R,5S)-5-(((1R,2S)-1-(cyclopropylsulfonylcarbamoyl)-2-vinylcyclopropyl)carbamoyl)-1-((S)-2-cyclohexyl-2-(4-(6-fluoropyridin-3-yl)thiazol-2-ylamino)acetyl)pyrrolidin-3-yl]-4-chloroisoindoline-2-carboxylate], the IC50 in experiment [1] (setting [3]) is under 0.1 µM. In addition, the EC50 in experiment [2] (setting [4]) is under 0.1 µM.

As for `CC[C@@H]1C[C@]1(NC(=O)[C@@H]1C[C@@H](OC(=O)N2Cc3cccc(F)c3C2)CN1C(=O)[C@@H](Nc1cncc(C(F)(F)F)c1)C(C)C)C(=O)NS(=O)(=O)C1CC1` [Compound 48, [(3R,5S)-5-((1R,2R)-1-(cyclopropylsulfonylcarbamoyl)-2-ethylcyclopropylcarbamoyl)-1-((S)-3-methyl-2-(5-(trifluoromethyl)pyridin-3-ylamino)butanoyl)pyrrolidin-3-yl]4-fluoroisoindoline-2-carboxylate], in experiment [1] (setting [3]), the IC50 was under 0.1 µM. Besides, in experiment [2] (setting [4]), the EC50 lay in the range of 0.1 to 1 µM.

On to `CC[C@@H]1C[C@]1(NC(=O)[C@@H]1C[C@@H](OC(=O)N2Cc3cccc(F)c3C2)CN1C(=O)[C@@H](Nc1cncc(C(F)(F)F)c1)C(C)(C)C)C(=O)NS(=O)(=O)C1CC1` [Compound 57, [(3R,5S)-5-((1R,2R)-1-(cyclopropylsulfonylcarbamoyl)-2-ethylcyclopropylcarbamoyl)-1-((S)-3,3-dimethyl-2-(5-(trifluoromethyl)pyridin-3-ylamino)butanoyl)pyrrolidin-3-yl]4-fluoroisoindoline-2-carboxylate], for which the IC50 in experiment [1] (setting [3]) is under 0.1 µM. For the same compound, the EC50 in experiment [2] (setting [4]) is under 0.1 µM.

In experiment [1], `CC(C)(C)[C@H](Nc1cccc(C(F)(F)F)c1)C(=O)N1C[C@H]2[C@@H]([C@H]1C(=O)NC(CC1CCC1)C(=O)C(N)=O)C2(C)C` (some centres unmarked) [Compound 68] gave an IC50 of 0.1 to 1 µM. The EC50 in experiment [2] (Hepatitis C virus, Huh-7, 72 h) fell in the range of 10 to 50 µM.

Consider “[(3R,5S)-5-((1R,2R)-1-(cyclopropylsulfonylcarbamoyl)-2-ethylcyclopropylcarbamoyl)-1-((S)-3,3-dimethyl-2-(3-(trifluoromethyl)phenylamino)butanoyl)pyrrolidin-3-yl]4-chloroisoindoline-2-carboxylate [Compound 55]”, for which the IC50 in experiment [1] (setting [3]) is under 0.1 µM. Also, the EC50 in experiment [2] (GS4.3 cells, 72 h incubation, NPTII ELISA) is under 0.1 µM.

Turning to `CC[C@@H]1C[C@]1(NC(=O)[C@@H]1C[C@@H](OC(=O)N2Cc3cccc(Cl)c3C2)CN1C(=O)[C@@H](Nc1cccc(Oc2ccccc2)c1)C(C)(C)C)C(=O)NS(=O)(=O)C1CC1` [Compound 76], in experiment [1] (setting [3]), the IC50 was under 0.1 µM. For the same compound, the EC50 in experiment [2] (setting [4]) is under 0.1 µM.

Take `C=C[C@@H]1C[C@]1(NC(=O)[C@@H]1C[C@@H](OC(=O)N2Cc3cccc(F)c3C2)CN1C(=O)[C@@H](Nc1cccc(C(F)(F)F)c1)C(C)(C)C)C(=O)NS(=O)(=O)C1CC1` [Compound 43, [(3R,5S)-5-((1R,2S)-1-(cyclopropylsulfonylcarbamoyl)-2-vinylcyclopropylcarbamoyl)-1-((S)-3,3-dimethyl-2-(3-(trifluoromethyl)phenylamino)butanoyl)pyrrolidin-3-yl]4-fluoroisoindoline-2-carboxylate]: in experiment [1] (setting [3]), the half-maximal inhibitory concentration (IC50) was under 0.1 µM. Also, in experiment [2] (setting [4]), the half-maximal effective concentration (EC50) is under 0.1 µM.

One may read the IC50 as the point on the concentration scale where inhibition reaches its midpoint. As a reminder, the EC50 is the concentration that produces a half-maximal response.
